Each compound was assayed against TNFα (Homo sapiens, UniProt P01375) (assay: TNF induced HEK-Blue assay (NF-kB-driven secreted alkaline phosphatase reporter)). Settings: TNF induced HEK-Blue assay IC50 value, TNFα 0.5 ng/mL, HEK-Blue-CD40L cells, 18 h.
Assay type: cell-based
Outline: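 HEK-Blue-CD40L cells (NF-kB-driven SEAP reporter), 20,000/well, added after 30 min pre-incubation of compound (0.004–25 μM final) with TNFα 0.5 ng/mL final at 37 °C; 18 h incubation. SEAP read with QUANTI-Blue at 620 nm; IC50 from 4-parameter logistic fit, normalized to unstimulated and stimulated DMSO controls.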

TNFα, sequence (P01375 77-233 limits assumed): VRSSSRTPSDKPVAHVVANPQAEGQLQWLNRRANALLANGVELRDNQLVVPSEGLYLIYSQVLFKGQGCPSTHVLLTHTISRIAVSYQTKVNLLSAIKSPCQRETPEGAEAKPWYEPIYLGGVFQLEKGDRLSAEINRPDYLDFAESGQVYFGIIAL

IC50 [nM]	SMILES
< 1000	Cc1nc2cc(F)c(-c3cnc(C(C)(C)O)nc3)nc2c(N[C@H](C)c2cc(C#N)ccc2F)c1Cl [Example 586, (R)-3-(1-((3-chloro-7-fluoro-6-(2-(2-hydroxypropan-2-yl)pyrimidin-5-yl)-2-methyl-1,5-naphthyridin-4-yl)amino)ethyl)-4-fluorobenzonitrile]

Same assay, conditions: TNFα 0.5 ng/mL, HEK-Blue-CD40L cells, 18 h; read-out: TNF induced HEK-Blue assay IC50 value

SMILES	IC50 [nM]
C[C@H](Nc1c(Cl)cnc2ccc(-c3cnc(C(C)(C)O)nc3)cc12)[C@H]1CCCN(C(=O)c2cccnc2)C1 [Example 566, ((S)-3-((S)-1-((3-chloro-6-(2-(2-hydroxypropan-2-yl)pyrimidin-5-yl)quinolin-4-yl)amino)ethyl)piperidin-1-yl)(pyridin-3-yl)methanone]	1000 to 10000
C[C@@H](Nc1c(Cl)cnc2ccc(-c3ccc(C4(NCCO)CCC4)cc3)cc12)c1ccccc1F [Example 568, (R)-2-((1-(4-(3-chloro-4-((1-(2-fluorophenyl)ethyl)amino)quinolin-6-yl)phenyl)cyclobutyl)amino)ethan-1-ol]	< 1000
Cc1nc2cc(F)c(-c3cnc(C(C)(C)O)nc3)nc2c(N[C@H](C)c2cc(C(O)CO)ccc2F)c1Cl (stereo partly drawn) [Example 570, 1-(3-((R)-1-((3-chloro-7-fluoro-6-(2-(2-hydroxypropan-2-yl)pyrimidin-5-yl)-2-methyl-1,5-naphthyridin-4-yl)amino)ethyl)-4-fluorophenyl)ethane-1,2-diol]	1000 to 10000
C=Cc1cccc([C@@H](C)Nc2c(Cl)c(C)nc3cc(F)c(-c4cnc(C(C)(C)O)nc4)nc23)c1 [Example 571, (R)-2-(5-(7-chloro-3-fluoro-6-methyl-8-((1-(3-vinylphenyl)ethyl)amino)-1,5-naphthyridin-2-yl)pyrimidin-2-yl)propan-2-ol]	< 1000
C=Cc1cccc([C@@H](C)Nc2c(Cl)cnc3cc(F)c(-c4cnc(C(C)(C)O)nc4)nc23)c1 [Example 574, (R)-2-(5-(7-chloro-3-fluoro-8-((1-(3-vinylphenyl)ethyl)amino)-1,5-naphthyridin-2-yl)pyrimidin-2-yl)propan-2-ol]	< 1000
Cc1nc2cc(F)c(-c3cnc(C(C)(C)O)nc3)nc2c(N[C@H](C)c2cc(C(N)=O)ccc2F)c1Cl [Example 584, (R)-3-(1-((3-chloro-7-fluoro-6-(2-(2-hydroxypropan-2-yl)pyrimidin-5-yl)-2-methyl-1,5-naphthyridin-4-yl)amino)ethyl)-4-fluorobenzamide]	< 1000
C[C@@H](Nc1c(Cl)cnc2ccc(-c3cnc(NCC(N)=O)nc3)cc12)c1ccccc1F [Example 585, (R)-2-((5-(3-chloro-4-((1-(2-fluorophenyl)ethyl)amino)quinolin-6-yl)pyrimidin-2-yl)amino)acetamide]	10000 to 25000
C[C@@H](Nc1c(Cl)cnc2ccc(-c3cnc(NC4(C(N)=O)CC4)nc3)cc12)c1ccccc1F [Example 587, (R)-1-((5-(3-chloro-4-((1-(2-fluorophenyl)ethyl)amino)quinolin-6-yl)pyrimidin-2-yl)amino)cyclopropane-1-carboxamide]	< 1000
C[C@@H](Nc1c(Cl)cnc2cc(F)c(-c3cnc(C(C)(C)O)nc3)nc12)c1cc(C#N)ccc1F [Example 590, (R)-3-(1-((3-chloro-7-fluoro-6-(2-(2-hydroxypropan-2-yl)pyrimidin-5-yl)-1,5-naphthyridin-4-yl)amino)ethyl)-4-fluorobenzonitrile]	< 1000
CC(=O)NC(C)(C)c1ccc(-c2ccc3ncc(Cl)c(NC(C)c4ccccc4F)c3c2)cc1 (stereo not drawn) [Example 592, N-(2-(4-(3-chloro-4-((1-(2-fluorophenyl)ethyl)amino)quinolin-6-yl)phenyl)propan-2-yl)acetamide]	1000 to 10000
C[C@@H](Nc1c(Cl)cnc2ccc(-c3cnc(C4CCN(CC(=O)O)CC4)nc3)cc12)c1ccccc1F [Example 593, (R)-2-(4-(5-(3-chloro-4-((1-(2-fluorophenyl)ethyl)amino)quinolin-6-yl)pyrimidin-2-yl)piperidin-1-yl)acetic acid]	1000 to 10000
C[C@@H](Nc1c(Cl)cnc2cc(F)c(-c3cnc(C4CCN(CC(=O)O)CC4)nc3)cc12)c1ccccc1F [Example 594, (R)-2-(4-(5-(3-chloro-7-fluoro-4-((1-(2-fluorophenyl)ethyl)amino)quinolin-6-yl)pyrimidin-2-yl)piperidin-1-yl)acetic acid]	< 1000

Next, values leading:

IC50 [nM]	SMILES
1000 to 10000	C[C@H](Nc1c(Cl)cnc2ccc(-c3cnc(C(C)(C)O)nc3)cc12)[C@H]1CCCN(c2cncnc2)C1 [Example 567, 2-(5-(3-chloro-4-(((S)-1-((S)-1-(pyrimidin-5-yl)piperidin-3-yl)ethyl)amino)quinolin-6-yl)pyrimidin-2-yl)propan-2-ol]
< 1000	C[C@@H](Nc1c(Cl)cnc2ccc(-c3ccc(CNC(N)=O)cc3)cc12)c1ccccc1F [Example 569, (R)-1-(4-(3-chloro-4-((1-(2-fluorophenyl)ethyl)amino)quinolin-6-yl)benzyl)urea]
1000 to 10000	C=Cc1ccc(F)c([C@@H](C)Nc2c(Cl)c(C)nc3cc(F)c(-c4cnc(C(C)(C)O)nc4)nc23)c1 [Example 572, (R)-2-(5-(7-chloro-3-fluoro-8-((1-(2-fluoro-5-vinylphenyl)ethyl)amino)-6-methyl-1,5-naphthyridin-2-yl)pyrimidin-2-yl)propan-2-ol]
< 1000	C[C@@H](Nc1c(Cl)cnc2cc(F)c(-c3cnc(C(C)(C)O)nc3)nc12)c1cccc(C(O)CO)c1 (stereo partly drawn) [Example 573, 1-(3-((R)-1-((3-chloro-7-fluoro-6-(2-(2-hydroxypropan-2-yl)pyrimidin-5-yl)-1,5-naphthyridin-4-yl)amino)ethyl)phenyl)ethane-1,2-diol]
< 1000	Cc1nc2cc(F)c(-c3cnc(C(C)(C)O)nc3)nc2c(N[C@H](C)c2cccc(C(O)CO)c2)c1Cl (stereo partly drawn) [Example 575, 1-(3-((R)-1-((3-chloro-7-fluoro-6-(2-(2-hydroxypropan-2-yl)pyrimidin-5-yl)-2-methyl-1,5-naphthyridin-4-yl)amino)ethyl)phenyl)ethane-1,2-diol]
< 1000	C[C@@H](Nc1c(Cl)cnc2cc(F)c(-c3cnc(C(C)(C)O)nc3)nc12)c1cccc(CO)c1 [Example 576, (R)-2-(5-(7-chloro-3-fluoro-8-((1-(3-(hydroxymethyl)phenyl)ethyl)amino)-1,5-naphthyridin-2-yl)pyrimidin-2-yl)propan-2-ol]
< 1000	Cc1nc2cc(F)c(-c3cnc(C(C)(C)O)nc3)nc2c(N[C@H](C)c2cc(CO)ccc2F)c1Cl [Example 577, (R)-2-(5-(7-chloro-3-fluoro-8-((1-(2-fluoro-5-(hydroxymethyl)phenyl)ethyl)amino)-6-methyl-1,5-naphthyridin-2-yl)pyrimidin-2-yl)propan-2-ol]
< 1000	Cc1nc2cc(F)c(-c3cnc(C(C)(C)O)nc3)nc2c(N[C@H](C)c2cccc(CO)c2)c1Cl [Example 578, (R)-2-(5-(7-chloro-3-fluoro-8-((1-(3-(hydroxymethyl)phenyl)ethyl)amino)-6-methyl-1,5-naphthyridin-2-yl)pyrimidin-2-yl) propan-2-ol]
1000 to 10000	C[C@@H](Nc1c(Cl)cnc2cc(F)c(-c3cnc(C(C)(C)O)nc3)nc12)c1cc(C(=O)O)ccc1F [Example 579, (R)-3-(1-((3-chloro-7-fluoro-6-(2-(2-hydroxypropan-2-yl)pyrimidin-5-yl)-1,5-naphthyridin-4-yl)amino)ethyl)-4-fluorobenzoic acid]
< 1000	Cc1nc2cc(F)c(-c3cnc(C(C)(C)O)nc3)nc2c(N[C@H](C)c2cccc(C(N)=O)c2)c1Cl [Example 580, (R)-3-(1-((3-chloro-7-fluoro-6-(2-(2-hydroxypropan-2-yl)pyrimidin-5-yl)-2-methyl-1,5-naphthyridin-4-yl)amino)ethyl)benzamide]
10000 to 25000	C[C@@H](Nc1c(Cl)cnc2cc(F)c(-c3cnc(C(C)(C)O)nc3)nc12)c1cccc(C(N)=O)c1 [Example 581, (R)-3-(1-((3-chloro-7-fluoro-6-(2-(2-hydroxypropan-2-yl)pyrimidin-5-yl)-1,5-naphthyridin-4-yl)amino)ethyl)benzamide]
10000 to 25000	Cc1nc2cc(F)c(-c3cnc(C(C)(C)O)nc3)nc2c(N[C@H](C)c2cc(C(=O)O)ccc2F)c1Cl [Example 582, (R)-3-(1-((3-chloro-7-fluoro-6-(2-(2-hydroxypropan-2-yl)pyrimidin-5-yl)-2-methyl-1,5-naphthyridin-4-yl)amino)ethyl)-4-fluorobenzoic acid]
< 1000	C[C@@H](Nc1c(Cl)cnc2cc(F)c(-c3cnc(C(C)(C)O)nc3)nc12)c1cc(C(N)=O)ccc1F [Example 583, (R)-3-(1-((3-chloro-7-fluoro-6-(2-(2-hydroxypropan-2-yl)pyrimidin-5-yl)-1,5-naphthyridin-4-yl)amino)ethyl)-4-fluorobenzamide]
< 1000	C[C@@H](Nc1c(Cl)cnc2cc(F)c(-c3cnc(C(C)(C)O)nc3)nc12)c1cccc(C#N)c1 [Example 588, (R)-3-(1-((3-chloro-7-fluoro-6-(2-(2-hydroxypropan-2-yl)pyrimidin-5-yl)-1,5-naphthyridin-4-yl)amino)ethyl)benzonitrile]
< 1000	Cc1nc2cc(F)c(-c3cnc(C(C)(C)O)nc3)nc2c(N[C@H](C)c2cccc(C#N)c2)c1Cl [Example 589, (R)-3-(1-((3-chloro-7-fluoro-6-(2-(2-hydroxypropan-2-yl)pyrimidin-5-yl)-2-methyl-1,5-naphthyridin-4-yl)amino)ethyl)benzonitrile]
< 1000	CC(Nc1ncc(-c2ccc3ncc(Cl)c(N[C@H](C)c4ccccc4F)c3c2)cn1)C(N)=O (stereo partly drawn) [Example 591, 2-((5-(3-chloro-4-(((R)-1-(2-fluorophenyl)ethyl)amino)quinolin-6-yl)pyrimidin-2-yl)amino)propanamide]
1000 to 10000	CC(C)(O)c1ncc(-c2cc3c(NC4(c5ccccc5F)CCC4)c(Cl)cnc3cc2F)cn1 [Example 609, 2-(5-(3-chloro-7-fluoro-4-((1-(2-fluorophenyl)cyclobutyl)amino)quinolin-6-yl)pyrimidin-2-yl)propan-2-ol]

From US10865191B2, “Heterocyclic compounds useful as modulators of TNF alpha” (BRISTOL-MYERS SQUIBB COMPANY, priority 2015, dated 2020)
